pIC50: −log10 of the molar value.
Columns and labels:
Plasmodium falciparum [1] = experiment: Antimalarial activity against drug-resistant asynchronous Plasmodium falciparum Dd2 infected in erythrocytes assessed as parasite growth inhibition at 10 uM after 48 hrs by [3H]-hypoxanthine incorporation assay relative to control; type: functional; conditions: read-out: GI
Plasmodium falciparum [2] = experiment: Antimalarial activity against chloroquine-sensitive asynchronous Plasmodium falciparum 3D7 infected in erythrocytes assessed as parasite growth inhibition after 48 hrs by [3H]-hypoxanthine incorporation assay; type: functional, organism-based
[3] = Selectivity ratio of IC50 for human NFF to IC50 for chloroquine-sensitive asynchronous Plasmodium falciparum 3D7
Plasmodium falciparum [4] = experiment: Antimalarial activity against drug-resistant asynchronous Plasmodium falciparum Dd2 infected in erythrocytes assessed as parasite growth inhibition after 48 hrs by [3H]-hypoxanthine incorporation assay; type: functional, organism-based
[5] = Selectivity ratio of IC50 for human NFF to IC50 for drug-resistant asynchronous Plasmodium falciparum Dd2

SMILES | inhibition of growth at 10 µM (Plasmodium falciparum [1]) | pIC50 (Plasmodium falciparum [2]) | Ratio IC50 [3] | pIC50 (Plasmodium falciparum [4]) | Ratio IC50 [5]
[C-]#[N+][C@@H]1CCC(C)=C[C@@H]2[C@@H](C(C)C)CC[C@]21C | 98.3% | 6.59 | 45 | 6.06 | 45
[C-]#[N+][C@]1(C)[C@H](C)C[C@@H]2C[C@H](C)[C@H]3CC[C@](C)([N+]#[C-])[C@H]4CC[C@H]1[C@@H]2[C@H]34 [DIISOCYANOADOCIANE] | 98.3% |  |  |  | 
[C-]#[N+]C1=CC(C)(C)[C@@H]2CC[C@@]3(C)CCC[C@@]12C3 | 98.3% | 6.52 | 45 | 6.44 | 45
CC1(C)C=C(NC=O)[C@]23CCC[C@](C)(CC[C@@H]12)C3 | < 50% | < 5.00 |  |  | 
[C-]#[N+][C@@H]1CC(C)(C)[C@@H]2CC[C@@]3(C)CCC[C@@]12C3 | 98.3% | 6.54 | 45 | 6.08 | 45
[C-]#[N+][C@@H]1[C@H]2C(=C)CCC[C@]2(C)CC[C@H]1C(C)C | 98.3% |  |  |  | 
CC1(C)C[C@@H]2[C@H]1CC[C@@]1(C)CCC[C@]2(N=C=S)C1 | < 50% | < 5.00 |  |  | 
[C-]#[N+][C@@H]1[C@H](C(C)C)CC[C@@H](C)[C@@]12C=C(C)CC2 [AXISONITRILE 3] | 98.3% |  |  |  | 
